Common to all, as to format: cell-based
Assay [1] has as its target T1, IKZF2 (Homo sapiens, UniProt Q96SW2+Q9UKS7). Description: Human whole blood IKZF2 degradation (flow cytometry, CD4/CD25/Foxp3+ Treg cells). Details: endogenous in cells. To be noted: 24 hrs incubation, IKZF2 MFI in CD4/CD25/Foxp3+ Treg cells, flow cytometry; for DC50: read-out: IKZF2 EC50. Here is the method: In vitro IKZF2 potency was assessed in human whole blood using a fluorescence activated cell sorting assay. 50 μL of freshly collected blood from healthy human volunteers was incubated with Immunocult CD3/CD28 activator (Stemcell Technologies) and solution of testing compounds (serially-diluted) for 24 hrs hours at 37° C. in 384 well plates. The treated red blood cells were removed by adding lysis buffer (BD cat #558049) then the cells were fixed, permeabilized, and stained with anti-CD4 (BD cat #564419), anti-Foxp3 (Invitrogen cat #48-4777-42), anti-IKZF1 (Cell Signaling Tech. cat #33462S), and anti-IKZF2(Cell Signaling Tech. cat #65432S) antibodies. The median fluorescent intensity (MFI) of IKZF2 signal from CD4/CD25/Foxp3+ Treg cells and MFI of IKZF1 signal from CD4+ T cells were quantified in the same samples by flow cytometry using an Attune instrument. EC50 and Dmax of each compound was determined by plotting the MFI and DMSO treated wells were used as control. Asterisks (*) indicate examples for which data represents an average of n≥3 repeat experiments.
Target sequence in this assay (Q9UKS7 whole entry): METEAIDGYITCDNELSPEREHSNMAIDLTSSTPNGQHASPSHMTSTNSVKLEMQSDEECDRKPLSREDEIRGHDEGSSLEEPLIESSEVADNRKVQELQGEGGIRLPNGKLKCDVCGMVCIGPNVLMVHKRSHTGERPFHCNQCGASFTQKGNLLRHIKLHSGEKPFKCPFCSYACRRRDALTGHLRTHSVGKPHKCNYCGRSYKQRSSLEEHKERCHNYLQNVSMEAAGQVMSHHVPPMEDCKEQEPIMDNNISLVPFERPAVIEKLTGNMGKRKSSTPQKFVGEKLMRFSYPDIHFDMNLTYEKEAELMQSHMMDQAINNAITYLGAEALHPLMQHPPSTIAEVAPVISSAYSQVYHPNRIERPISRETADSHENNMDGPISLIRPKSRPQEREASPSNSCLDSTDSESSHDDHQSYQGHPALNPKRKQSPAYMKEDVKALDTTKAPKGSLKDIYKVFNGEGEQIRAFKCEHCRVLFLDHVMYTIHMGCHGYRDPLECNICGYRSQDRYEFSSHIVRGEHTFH
Target sequence in this assay (Q96SW2 whole entry): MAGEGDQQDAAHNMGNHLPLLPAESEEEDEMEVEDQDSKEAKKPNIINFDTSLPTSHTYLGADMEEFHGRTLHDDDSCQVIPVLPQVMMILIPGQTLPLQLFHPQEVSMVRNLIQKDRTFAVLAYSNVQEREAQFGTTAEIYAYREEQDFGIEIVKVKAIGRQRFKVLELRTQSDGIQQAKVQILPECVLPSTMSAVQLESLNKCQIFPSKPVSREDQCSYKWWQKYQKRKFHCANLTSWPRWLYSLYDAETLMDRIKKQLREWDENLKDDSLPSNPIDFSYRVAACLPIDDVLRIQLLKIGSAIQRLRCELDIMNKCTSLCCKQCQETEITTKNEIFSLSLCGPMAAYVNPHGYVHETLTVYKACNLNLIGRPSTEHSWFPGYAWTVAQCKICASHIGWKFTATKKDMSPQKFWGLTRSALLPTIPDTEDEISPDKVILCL
Target sequence in this assay (Q16531 whole entry partner): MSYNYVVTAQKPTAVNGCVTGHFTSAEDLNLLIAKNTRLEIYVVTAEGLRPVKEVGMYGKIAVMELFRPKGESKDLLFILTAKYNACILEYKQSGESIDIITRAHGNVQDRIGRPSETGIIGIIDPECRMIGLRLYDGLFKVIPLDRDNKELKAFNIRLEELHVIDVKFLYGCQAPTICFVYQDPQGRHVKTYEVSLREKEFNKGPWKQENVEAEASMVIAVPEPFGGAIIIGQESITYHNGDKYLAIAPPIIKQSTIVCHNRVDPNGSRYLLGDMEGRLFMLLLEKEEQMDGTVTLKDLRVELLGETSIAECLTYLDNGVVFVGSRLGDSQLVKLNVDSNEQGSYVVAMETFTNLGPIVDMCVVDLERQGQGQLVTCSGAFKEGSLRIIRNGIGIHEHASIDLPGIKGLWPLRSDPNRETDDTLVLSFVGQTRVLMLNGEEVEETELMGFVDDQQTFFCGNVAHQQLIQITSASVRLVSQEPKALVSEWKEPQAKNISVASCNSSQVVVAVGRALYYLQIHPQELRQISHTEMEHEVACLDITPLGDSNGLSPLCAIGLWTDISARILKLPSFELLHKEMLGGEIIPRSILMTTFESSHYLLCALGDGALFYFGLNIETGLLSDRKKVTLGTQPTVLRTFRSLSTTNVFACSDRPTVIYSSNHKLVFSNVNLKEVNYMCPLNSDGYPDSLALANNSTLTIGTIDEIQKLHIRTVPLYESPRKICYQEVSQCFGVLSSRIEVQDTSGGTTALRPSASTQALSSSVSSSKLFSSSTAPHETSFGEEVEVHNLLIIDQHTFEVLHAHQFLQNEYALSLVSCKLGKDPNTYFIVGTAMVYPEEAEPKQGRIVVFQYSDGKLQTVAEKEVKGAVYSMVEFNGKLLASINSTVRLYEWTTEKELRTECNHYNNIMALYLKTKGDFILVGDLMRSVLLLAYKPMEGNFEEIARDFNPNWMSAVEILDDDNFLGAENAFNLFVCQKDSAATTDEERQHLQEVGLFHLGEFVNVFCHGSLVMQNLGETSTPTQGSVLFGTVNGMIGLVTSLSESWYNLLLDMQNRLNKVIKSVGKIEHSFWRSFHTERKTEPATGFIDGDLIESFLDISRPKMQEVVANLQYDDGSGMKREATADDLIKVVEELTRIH

For a further assay, the target named is T2, IKZF1 (Homo sapiens, UniProt Q13422+Q96SW2).
T2 construct: expressed in transfected cells
T2 sequence (Q13422 whole entry): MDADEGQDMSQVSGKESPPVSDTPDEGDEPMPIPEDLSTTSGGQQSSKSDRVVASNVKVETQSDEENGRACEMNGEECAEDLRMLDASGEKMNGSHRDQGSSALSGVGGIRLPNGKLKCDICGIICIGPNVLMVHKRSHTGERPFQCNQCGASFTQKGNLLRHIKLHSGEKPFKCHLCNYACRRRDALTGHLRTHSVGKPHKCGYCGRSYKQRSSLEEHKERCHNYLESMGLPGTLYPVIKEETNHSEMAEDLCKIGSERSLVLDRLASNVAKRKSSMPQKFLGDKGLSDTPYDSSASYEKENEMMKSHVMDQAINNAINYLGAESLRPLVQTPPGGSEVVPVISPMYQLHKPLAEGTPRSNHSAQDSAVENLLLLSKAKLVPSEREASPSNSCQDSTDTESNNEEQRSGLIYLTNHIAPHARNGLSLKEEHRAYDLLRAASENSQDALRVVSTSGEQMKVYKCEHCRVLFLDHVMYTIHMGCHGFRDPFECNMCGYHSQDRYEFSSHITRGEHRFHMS
T2 sequence (Q96SW2 whole entry): as the sequence (Q96SW2 whole entry) above
T2 sequence (Q16531 whole entry partner): as the sequence (Q16531 whole entry partner) above
Description: HEK293 HiBiT in vitro degradation of IKZF1. To be noted: for DC50: 18-24 hr incubation, normalized to DMSO control, read-out: IKZF1 EC50; for Dmax: HEK293, HEK293 HiBiT. A digest of the protocol:
(§1)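 Dox-inducible ([…] final, overnight) HEK293 Flp-In T-REx, single-copy target-HiBiT C-terminal fusion; compound serial dilution, 18-24 h, 37 °C; lytic Nano-Glo luminescence; EC50, Dmax.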

Assay [2] addresses T1, IKZF2. Description: HEK293 HiBiT in vitro degradation of IKZF2. Details: expressed in transfected cells. The note with it: for DC50: 18-24 hr incubation, normalized to DMSO control, read-out: IKZF2 EC50; for Dmax: HEK293, HEK293 HiBiT. The essentials:
as §1
Target sequence in this assay (Q9UKS7 1-500 isoform Q9UKS7-2): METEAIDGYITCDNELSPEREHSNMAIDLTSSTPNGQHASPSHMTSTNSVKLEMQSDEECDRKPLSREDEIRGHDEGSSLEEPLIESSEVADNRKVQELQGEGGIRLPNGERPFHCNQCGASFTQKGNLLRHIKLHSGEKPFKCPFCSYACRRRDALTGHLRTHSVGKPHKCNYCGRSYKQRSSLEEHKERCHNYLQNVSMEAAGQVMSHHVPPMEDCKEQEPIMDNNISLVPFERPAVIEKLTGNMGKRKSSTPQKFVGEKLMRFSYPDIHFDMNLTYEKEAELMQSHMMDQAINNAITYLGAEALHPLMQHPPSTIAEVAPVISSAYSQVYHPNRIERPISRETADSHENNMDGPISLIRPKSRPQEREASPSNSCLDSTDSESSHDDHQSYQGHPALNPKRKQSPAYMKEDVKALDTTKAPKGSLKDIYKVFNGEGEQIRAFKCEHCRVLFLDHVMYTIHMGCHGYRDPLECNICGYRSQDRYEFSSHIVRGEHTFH
Target sequence in this assay (Q96SW2 whole entry): as the sequence (Q96SW2 whole entry) above
Target sequence in this assay (Q16531 whole entry partner): as the sequence (Q16531 whole entry partner) above

The mark [3] stands for this setting: HEK293 HiBiT, maximum degradation at the highest concentration tested.
Setting [4] is: maximum degradation at the highest concentration tested.

Some results are limits rather than exact numbers.

With `O=C1CCC(N2Cc3cc(C[C@H]4CCCC[C@@H]4NC4CCC(C(F)(F)F)CC4)ccc3C2=O)C(=O)N1` (single isomer, unassigned) [Example 122], the maximal degradation (Dmax) at IKZF2 [1] turned out to be 97%. The DC50 on IKZF2 [1] worked out at 2 nM; on IKZF1 (HEK293 HiBiT), 57 nM; on IKZF2 [2] (HEK293 HiBiT), 2 nM. Moreover, the “IKZF1 Dmax” value on IKZF1 (setting [3]) was 45%. Further, the “IKZF2 Dmax” value at IKZF2 [2] (setting [3]) is 96%.

For the compound `CC(N[C@H]1CCCC[C@@H]1Cc1ccc2c(c1)CN(C1CCC(=O)NC1=O)C2=O)C1CC(F)(F)C1` (single isomer, unassigned) [Example 136], the greatest degradation seen (Dmax) on IKZF2 [1] and at IKZF2 [2] (setting [4]) was 97% in each case. The DC50 at IKZF2 [1] was 6 nM; at IKZF1 (HEK293 HiBiT), more than 1000 nM; on IKZF2 [2] (HEK293 HiBiT) it was 4 nM.

For `CC(N[C@H]1CCCC[C@@H]1Cc1ccc2c(c1)CN(C1CCC(=O)NC1=O)C2=O)C1(C#N)CC1` (single isomer, unassigned) [Example 256], at IKZF2 [1], the Dmax worked out at 95% and the DC50 worked out at 10 nM. Moreover, the DC50 on IKZF1 (HEK293 HiBiT) was more than 1000 nM.

Turning to `CC(CCC(F)F)N[C@H]1CCCO[C@@H]1Cc1ccc2c(c1F)CN(C1CCC(=O)NC1=O)C2=O` (stereo partly drawn) [Example 320, 3-(5-(((2R,3S)-3-((5,5-difluoropentan-2-yl)amino)tetrahydro-2H-pyran-2-yl)methyl)-4-fluoro-1-oxoisoindolin-2-yl)piperidine-2,6-dione], the DC50 on IKZF1 (HEK293 HiBiT) was more than 1000 nM; on IKZF2 [2] (HEK293 HiBiT), 11 nM. Moreover, the maximal degradation (Dmax) at IKZF2 [2] (setting [4]) was 93%.

Turning to `CC(CCCC(F)(F)F)N[C@H]1CCCO[C@@H]1Cc1ccc2c(c1F)CN(C1CCC(=O)NC1=O)C2=O` (stereo partly drawn) [Example 321], the Dmax at IKZF1 (setting [4]) is 44%; on IKZF2 [2] (setting [4]), 94%. For the same compound, the results for the DC50 on IKZF1 (HEK293 HiBiT) and on IKZF2 [2] (HEK293 HiBiT) were 371 nM and 6 nM, respectively.

For the compound `CCC(C)(C)N[C@H]1CCCC[C@@H]1Cc1ccc2c(c1)CN(C1CCC(=O)NC1=O)C2=O` (stereo partly drawn) [Example 322, 3-(1-oxo-5-(((1R,2S)-2-(tert-pentylamino)cyclohexyl)methyl)isoindolin-2-yl)piperidine-2,6-dione], the DC50 on IKZF1 (HEK293 HiBiT) is more than 1000 nM; on IKZF2 [2] (HEK293 HiBiT) it was 54 nM. The same compound showed a Dmax on IKZF2 [2] (setting [4]) of 72%.

For `O=C1CCC(N2Cc3cc(C[C@H]4CCCC[C@@H]4NC4CCC(OC(F)F)CC4)ccc3C2=O)C(=O)N1` (stereo partly drawn) [Example 323, 3-(5-(((1R,2S)-2-((4-(difluoromethoxy)cyclohexyl)amino)cyclohexyl)methyl)-1-oxoisoindolin-2-yl)piperidine-2,6-dione], the Dmax was found to be 45% on IKZF1 (setting [4]) and 96% on IKZF2 [2] (setting [4]). Further, the DC50 at IKZF1 (HEK293 HiBiT) was found to be 50 nM; at IKZF2 [2] (HEK293 HiBiT), 3 nM.

On to `O=C1CCC(N2Cc3cc(C[C@H]4CCCCC[C@@H]4NC4CCC(F)(F)CC4)ccc3C2=O)C(=O)N1` (stereo partly drawn) [Example 340], for which the DC50 at IKZF1 (HEK293 HiBiT) was more than 1000 nM; on IKZF2 [2] (HEK293 HiBiT) it was 76 nM. The same compound displayed a Dmax on IKZF2 [2] (setting [4]) of 55%.

As to `O=C1CCC(N2Cc3cc(C[C@H]4C[C@@H](F)CC[C@@H]4NC4CCC(F)(F)CC4)ccc3C2=O)C(=O)N1` (stereo partly drawn) [Example 341], the figures for the DC50 on IKZF1 (HEK293 HiBiT) and on IKZF2 [2] (HEK293 HiBiT) were more than 1000 nM and 21 nM, respectively. This compound displayed a Dmax at IKZF2 [2] (setting [4]) of 87%.

Regarding `O=C1CCC(N2Cc3cc(C[C@H]4C[C@@H](F)CC[C@@H]4NC4CCCCC4)ccc3C2=O)C(=O)N1` (stereo partly drawn) [Example 342], the DC50 on IKZF1 (HEK293 HiBiT) is more than 1000 nM; at IKZF2 [2] (HEK293 HiBiT), 18 nM. Also, the maximal degradation (Dmax) on IKZF2 [2] (setting [4]) turned out to be 86%.

Take `O=C1CCC(N2Cc3cc(C[C@H]4CCC(F)(F)C[C@@H]4NC4CCC(F)(F)CC4)ccc3C2=O)C(=O)N1` (stereo partly drawn) [Example 345]: the values for the Dmax on IKZF1 (setting [4]) and at IKZF2 [2] (setting [4]) were 56% and 97%, respectively. The figures for the DC50 on IKZF1 (HEK293 HiBiT) and on IKZF2 [2] (HEK293 HiBiT) were 174 nM and 4 nM, respectively.

For the compound `O=C1CC[C@H](N2Cc3cc(C[C@H]4CCCC[C@@H]4NC4CCC(F)(F)CC4)cc(F)c3C2=O)C(=O)N1` [Example 347], the DC50 is more than 1000 nM at IKZF1 (HEK293 HiBiT) and 38 nM on IKZF2 [2] (HEK293 HiBiT). On IKZF2 [2] (setting [4]), the Dmax was 75%.

On to `CC(C)N[C@H]1CC(F)(F)CC[C@@H]1Cc1ccc2c(c1)CN(C1CCC(=O)NC1=O)C2=O` (stereo partly drawn) [Example 348], for which the greatest degradation seen (Dmax) amounted to 39% on IKZF1 (setting [4]) and 97% on IKZF2 [2] (setting [4]). The values for the DC50 at IKZF1 (HEK293 HiBiT) and on IKZF2 [2] (HEK293 HiBiT) were 62 nM and 2 nM, respectively.

On to `CC(N[C@H]1CC(F)(F)CC[C@@H]1Cc1ccc2c(c1)CN(C1CCC(=O)NC1=O)C2=O)C1CCOCC1` (stereo partly drawn) [Example 349], for which the Dmax came out at 42% at IKZF1 (setting [4]) and 92% at IKZF2 [2] (setting [4]). For the same compound, the DC50 was found to be 89 nM at IKZF1 (HEK293 HiBiT) and 11 nM at IKZF2 [2] (HEK293 HiBiT).

Consider `O=C1CCC(N2Cc3cc(C[C@H]4CCCC[C@@H]4NC4CCC(F)(F)CC4)c(F)cc3C2=O)C(=O)N1` (stereo partly drawn) [Example 350], for which the Dmax came out at 50% at IKZF1 (setting [4]) and 94% on IKZF2 [2] (setting [4]). For the same compound, the results for the DC50 at IKZF1 (HEK293 HiBiT) and on IKZF2 [2] (HEK293 HiBiT) were 124 nM and 10 nM, respectively.

For the compound `O=C1CCC(N2Cc3cc(C[C@H]4CC[C@@H](F)C[C@@H]4NC4CCC(F)(F)CC4)ccc3C2=O)C(=O)N1` (stereo partly drawn) [Example 354], the Dmax on IKZF1 (setting [4]) turned out to be 32%; on IKZF2 [2] (setting [4]) it was 93%. The DC50 came to 30 nM at IKZF1 (HEK293 HiBiT) and 3 nM on IKZF2 [2] (HEK293 HiBiT).

`O=C1CCC(N2Cc3cc(C[C@H]4CC[C@@H](F)C[C@@H]4NC4CCCCC4)ccc3C2=O)C(=O)N1` (stereo partly drawn) [Example 355]: the DC50 was more than 1000 nM at IKZF1 (HEK293 HiBiT) and 5 nM on IKZF2 [2] (HEK293 HiBiT). The Dmax on IKZF2 [2] (setting [4]) was 91%.

With `O=C1CC[C@H](N2Cc3c(ccc(C[C@H]4OCCC[C@@H]4N[C@H]4CC[C@@H](C(F)F)CC4)c3F)C2=O)C(=O)N1` [Example 368], the DC50 at IKZF1 (HEK293 HiBiT) is more than 1000 nM; at IKZF2 [2] (HEK293 HiBiT), 8 nM. At IKZF2 [2] (setting [4]), this compound gave a maximal degradation (Dmax) of 96%.

On to `O=C1CCC(N2Cc3c(ccc(C[C@H]4OCCC[C@@H]4NC4CCc5cn[nH]c5C4)c3F)C2=O)C(=O)N1` (stereo partly drawn) [Example 374], for which the DC50 on IKZF1 (HEK293 HiBiT) was more than 1000 nM; on IKZF2 [2] (HEK293 HiBiT), 58 nM. For the same compound, the Dmax on IKZF2 [2] (setting [4]) is 98%.

As for `O=C1CCC(N2Cc3cc(C[C@H]4CCCC[C@@H]4NC4CCc5c(C(F)(F)F)n[nH]c5C4)ccc3C2=O)C(=O)N1` (stereo partly drawn) [Example 375], the Dmax is 65% at IKZF1 (setting [4]) and 99% at IKZF2 [2] (setting [4]). Besides, the DC50 on IKZF1 (HEK293 HiBiT) was determined as 48 nM; at IKZF2 [2] (HEK293 HiBiT) it was 4 nM.

Take `O=C1CCC(N2Cc3cc(C[C@H]4CCCC[C@@H]4NC4CCC(c5ccccn5)CC4)ccc3C2=O)C(=O)N1` (stereo partly drawn) [Example 379]: the Dmax at IKZF1 (setting [4]) was 62%; on IKZF2 [2] (setting [4]) it was 96%. The results for the DC50 at IKZF1 (HEK293 HiBiT) and on IKZF2 [2] (HEK293 HiBiT) were 44 nM and 3 nM, respectively.

Regarding `O=C1CCC(N2Cc3cc(C[C@H]4CCCC[C@@H]4NC4CCC(n5cnnc5)CC4)ccc3C2=O)C(=O)N1` (stereo partly drawn) [Example 380], the DC50 at IKZF1 (HEK293 HiBiT) was more than 1000 nM; on IKZF2 [2] (HEK293 HiBiT), 400 nM. The compound also displayed a maximal degradation (Dmax) on IKZF2 [2] (setting [4]) of 71%.

On to `C=C1CC[C@H](N)[C@@H](Cc2ccc3c(c2)CN(C2CCC(=O)NC2=O)C3=O)C1` (stereo partly drawn) [Example 381, 3-(5-(((1R,2S)-2-amino-5-methylenecyclohexyl)methyl)-1-oxoisoindolin-2-yl)piperidine-2,6-dione], for which the values for the Dmax at IKZF1 (setting [4]) and at IKZF2 [2] (setting [4]) were 29% and 65%, respectively. Besides, the values for the DC50 on IKZF1 (HEK293 HiBiT) and at IKZF2 [2] (HEK293 HiBiT) were 108 nM and 207 nM, respectively.

Turning to `O=C1CCC(N2Cc3c(ccc(O[C@H]4CCCC[C@@H]4NC4CCC(F)(F)CC4)c3F)C2=O)C(=O)N1` (stereo partly drawn) [Reference Compound B-1, reference compound], the DC50 on IKZF1 (HEK293 HiBiT) was more than 1000 nM; at IKZF2 [2] (HEK293 HiBiT), 6 nM. On IKZF2 [2] (setting [4]), this compound gave a Dmax of 97%.

Source of the values: patent US11897862B2 (Gilead Sciences, Inc., priority 2022, dated 2024).
